Key:
[1] = test system: human neuroblastoma strains SH-SY-5Y and SK-N-BE Bep 75; experiment: Measurement of apoptosis (NGF-induced, cell death detection ELISA); assay type: cell-based; conditions: SH-SY5Y, NGF 10 ng/ml, 48 h (SH-SY-5Y) or 24 h (SK-N-BE Bep 75), cell strain not given, read-out: IC50 of NGF-induced apoptosis inhibition
Procedure: The SH-SY-5Y strain (human neuroblastoma) is cultured conventionally in a DMEM culture medium (Dulbecco's Modified Eagle's Medium) (Gibco BRL, France) containing FCS (5%) (foetal calf serum) (Boehringer Mannheim, Germany), sodium pyruvate (1 mM) and glutamine (4 mM) in collagen-coated culture flasks (Becton Dickinson, France).
(§1) The parent strain SK-N-BE (human neuroblastoma) and the clone Bep 75, stably expressing the whole form of the human p75^NTR receptor (SK-N-BE Bep 75), are cultured conventionally in an RPMI culture medium containing FCS (5%), sodium pyruvate (1 mM) and glutamine (4 mM). For the SK-N-BE Bep 75 cells, hygromycin (200 μl/20 ml of medium) is added as selection agent.
The cells (human neuroblastoma strains SH-SY-5Y and SK-N-BE Bep 75) are placed in Petri dishes 35 mm in diameter (Biocoat collagen I (10^5 cells/well)) in an appropriate culture medium containing 5% FCS for 24 h. The culture medium is then removed, the cells are rinsed with PBS (Dulbecco's Phosphate buffered saline), and then either fresh medium containing 5% FCS, or medium containing NGF (at the concentration of 10 ng/ml) or beta-amyloid peptide (Aβ1-40) (at the concentration of 10 μM) is added, in the presence or absence of the compounds according to the invention. The degrees of apoptosis are measured 48 hours after the treatments in the case of the SH-SY-5Y strain, and 24 hours after the treatments in the case of the SK-N-BE Bep 75 strain, by quantifying the cytoplasmic histones associated with DNA fragments (cell death detection ELISA, Boehringer Mannheim, Germany). The degrees of apoptosis are expressed as quantity of oligonucleosomes/10^5 cells. Each value corresponds to the mean of 9 experimental points distributed over 3 independent experiments.

p75^NTR receptor [2] = target: T1, p75^NTR receptor (Homo sapiens, UniProt P08138); experiment: Binding of 125I NGF to the p75NTR receptor on SK-N-BE Bep 75 cell suspension; parameters: the whole form of the human p75^NTR receptor; expressed in transfected cells; host or cells: SK-N-BE (human neuroblastoma), clone Bep 75, hygromycin selection
T1 sequence (P08138 29-427): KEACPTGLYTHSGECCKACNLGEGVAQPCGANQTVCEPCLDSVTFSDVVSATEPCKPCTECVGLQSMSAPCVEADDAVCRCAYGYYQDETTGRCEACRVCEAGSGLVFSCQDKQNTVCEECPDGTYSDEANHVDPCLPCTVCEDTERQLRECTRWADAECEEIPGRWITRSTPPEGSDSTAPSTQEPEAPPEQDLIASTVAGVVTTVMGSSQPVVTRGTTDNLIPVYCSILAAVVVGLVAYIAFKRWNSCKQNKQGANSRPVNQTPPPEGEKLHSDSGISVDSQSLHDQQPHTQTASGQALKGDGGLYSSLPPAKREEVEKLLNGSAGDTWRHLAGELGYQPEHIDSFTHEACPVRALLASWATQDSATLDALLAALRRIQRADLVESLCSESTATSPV
Procedure: as §1
Study of the binding of ^125I NGF to the p75^NTR receptor The study of NGF binding (nerve growth factor radiolabelled with iodine-125, Amersham—2000 Ci/mmol) is carried out on a cell suspension of the SK-N-BE Bep 75 strain in accordance with the method described by Weskamp (Neuron, 1991, 6, 649-663). The non-specific binding is determined by measuring the total binding after preincubation for one hour with cells at 37° C. in the presence of non-radiolabelled NGF (1 μM). The specific binding is calculated by the difference between the total binding measurement and the non-specific binding measurement. The competition experiments are carried out using an iodinated NGF (^125I NGF) concentration of 0.3 nM.

p75^NTR receptor [3] = target: T1, p75^NTR receptor; experiment: p75NTR receptor dimerisation independently of its ligand (soluble p75NTR-alkaline phosphatase binding to SK-N-BE Bep 75 cells); parameters: the whole form of the human p75^NTR receptor; expressed in transfected cells; host or cells: SK-N-BE Bep 75 cells (membrane receptor); HEK293 cells transfected for 48 h (secreted soluble fusion)
Procedure: as §1
Study of p75^NTR receptor dimerisation independently of its ligand The study of p75^NTR receptor dimerisation is carried out on a cell suspension of the SK-N-BE Bep 75 strain. The cells (2.5×10^4 cells/well) are placed in wells (96-well plate) for 24 h, and then preincubated for 1 h at 37° C. in the presence or absence of the compounds according to the invention. Supernatant, derived from culturing HEK293 human cells of renal origin expressing, after transfection for 48 h, and secreting a soluble form of the p75^NTR receptor (extracellular part of the receptor) coupled to an alkaline phosphatase, is then added at the final concentration of 10 nM. The quantification of the specific binding of the soluble p75^NTR receptor to the receptor present on SK-N-BE Bep 75 cells is determined by measuring the enzymatic alkaline phosphatase activity after incubation of the cells for 1 hour at 37° C. in the presence of the supernatant. After filtration and transfer of the filters into 24-well plates, the alkaline phosphatase activity is determined by adding CDP-Star chemiluminescent substrate (ready-to-use, Roche).

Row | SMILES | IC50 [1] [nM] | IC50 (p75^NTR receptor [2]) [nM] | IC50 (p75^NTR receptor [3]) [nM]
1 | O=C(CN1CC2CCC(C1)N2c1ccc(C(F)(F)F)cn1)N1CC=C(c2cccc(C(F)(F)F)c2)CC1 [Compound No. 1, 1-[4-(3-trifluoromethylphenyl)-3,6-dihydro-2H-pyridin-1-yl]-2-[8-(5-trifluoromethylpyridin-2-yl)-3,8-diazabicyclo[3.2.1]oct-3-yl]ethanone] | 1.33 | 1.35 | 23.4
2 | O=C(CN1CC2CCC(C1)N2c1ncccn1)N1CC=C(c2ccc(Cl)cc2)CC1 [Compound No. 2, 1-[4-(4-chlorophenyl)-3,6,-dihydro-2H-pyridin-1-yl]-2-(8-pyrimidin-2-yl-3,8-diazabicyclo[3.2.1]oct-3-yl)ethanone] | – | 0.18 | –
3 | O=C(CN1C2CCC1CN(c1cnccn1)C2)N1CC=C(c2cccc(C(F)(F)F)c2)CC1 [Compound No. 3, 2-(3-pyrazin-2-yl-3,8-diazabicyclo[3.2.1]oct-8-yl)-1-[4-(3-trifluoromethylphenyl)-3,6-dihyro-2H-pyridin-1-yl]ethanone] | 0.067 | – | 0.05
4 | O=C(CN1CC2CCC(C1)N2c1ccc(C(F)(F)F)cn1)N1CC=C(c2ccc(Cl)cc2)CC1 [Compound No. 7, 1-[4-(4-chlorophenyl)-3,6-dihydro-2H-pyridin-1-yl]-2-[8-(5-trifluoromethylpyridin-2-yl)-3,8-diazabicyclo[3.2.1]oct-3-yl]ethanone] | – | 0.29 | –
5 | O=C(CN1CC2CCC(C1)N2c1ccc(C(F)(F)F)cn1)N1CC=C(c2ccc(Cl)c(C(F)(F)F)c2)CC1 [Compound No. 8, 1-[4-(4-chloro-3-trifluoromethylphenyl)-3,6-dihydro-2H-pyridin-1-yl]-2-[8-(5-trifluoromethylpyridin-2-yl)-3,8-diazabicyclo[3.2.1]oct-3-yl]ethanone] | 2.24 | – | 0.68
6 | O=C(CN1CC2CCC(C1)N2c1ncc(F)cn1)N1CC=C(c2ccc(Cl)c(C(F)(F)F)c2)CC1 [Compound No. 11, 1-[4-(4-chloro-3-trifluoromethylphenyl)-3,6-dihydro-2H-pyridin-1-yl]-2-[8-(5-fluoropyrimidin-2-yl)-3,8-diazabicyclo[3.2.1]oct-3-yl]ethanone] | 0.21 | 0.98 | 0.2
7 | O=C(CN1CC2CCC(C1)N2c1cccnc1)N1CC=C(c2ccc(Cl)c(C(F)(F)F)c2)CC1 [Compound No. 27, 1-[4-(4-chloro-3-trifluoromethylphenyl)-3,6-dihydro-2H-pyridin-1-yl]-2-(8-pyridin-3-yl-3,8-diazabicyclo[3.2.1]oct-3-yl)ethanone] | 0.088 | – | 0.23
8 | COC(=O)c1ccc(N2C3CCC2CN(CC(=O)N2CC=C(c4ccc(Cl)c(C(F)(F)F)c4)CC2)C3)nc1 [Compound No. 28, 6-(3-{2-[4-(4-chloro-3-trifluoromethylphenyl)-3,6-dihydro-2H-pyridin-1-yl]-2-oxoethyl}-3,8-diazabicyclo[3.2.1]oct-8-yl)nicotinic acid methyl ester] | – | – | 9.84
9 | O=C(O)c1ccc(N2C3CCC2CN(CC(=O)N2CC=C(c4ccc(Cl)c(C(F)(F)F)c4)CC2)C3)nc1 [Compound No. 29, 6-(3-{2-[4-(4-chloro-3-trifluoromethylphenyl)-3,6-dihydro-2H-pyridin-1-yl]-2-oxoethyl}-3,8-diazabicyclo[3.2.1]oct-8-yl)nicotinic acid] | 0.22 | – | 0.14
10 | COC(=O)c1cccc(C2=CCCN(C(=O)CN3CC4CCC(C3)N4c3ncc(F)cn3)C2)c1 [Compound No. 53, 3-(1-{2-[8-(5-fluoropyrimidin-2-yl)-3,8-diazabicyclo[3.2.1]oct-3-yl]acetyl}-1,2,5,6-tetrahydropyridin-3-yl)benzoic acid methyl ester] | – | – | 2.08

— patent US8519143B2, “Derivatives of (bridged piperazinyl)-1-alkanone and use thereof as p75 inhibitors” (Sanofi, priority 2008, dated 2013)
